These results are taken from patent US6441036B1 (priority 1998, dated 2002).

The test system of assay [1] is mitochondrial β-oxidation. The assay can be described thus: Liver fatty acid oxidation in treated obese Zucker rats (Example 16). Format: in vivo, obese Zucker (fa/fa) rats. The conditions noted are these: palmitoyl-CoA and palmitoyl-L-carnitine as substrates; chow with 0.15% TTA, 21 days. Here is the method:
Freshly isolated livers from individual old Zucker rats, were homogenised in ice-cold sucrose buffer (0.25 M sucrose, 10 mM HEPES (pH 7.4) and 2 mM EDTA). Post-nuclear and mitochondrial fractions were prepared using preparative differential centrifugation according to DeDuve et al. (De Duve, C., et al., Biochem. J., 60, 604-617 1955.) Modifications, purity and yield were as described earlier (Garras, A., et al., Biochim. Biophys. Acta, 1255, 154-160 1995.). Acid soluble products were measured in post-nuclear and mitochondrial enriched fractions, using [1-^14C]-palmitoyl-CoA and [1-^14C]-palmitoyl-L-carnitine (Radio-chemical Centre, Amersham, England) as substrates as described earlier (Willumsen, N., et al., J. Lipid Res., 34, 13-22 1993. Carnitine palmitoyltransferase-I and -II activities were measured in the post-nuclear and mitochondrial fractions essentially as described by Bremer (Bremer, J., Biochim. Biophys. Acta, 665, 628-631 1981.) and 3-hydroxy-3-methylglutharyl-CoA synthase was measured according to Clinkenbeard et al. (Clinkenbeard, K. D., et al., J. Biol. Chem, 250, 3108-3116 1975.) in the mitochondrial fractions.
Obese Zucker (fa/fa) rats were given a standard chow either with (n=6) or without (n=5) 0.15% TTA. Following 21 days of treatment, rats were killed by cervical dislocation and the livers were removed. […] Values are expressed as the mean±S.D.

Assay [2] is described as follows: Body weight of normal rats after 12 weeks (Example 6). Format: in vivo. The conditions noted are these: male Wistar rats, oral, 12 weeks of treatment. Here is the method:
2 groups of 6 male Wistar Rats were randomly selected, and studied for weight development over a period of 12 week. The body weight of each Wistar rat was measured at the start of the experiment. All animals in both groups received individually the same amount of food (nutrition) during the experimental period of 12 weeks. All animals in one of the groups were orally administrated with the medicament comprising TTA. The other group was the control group (CMC). After the 12 week period the body weight of rats were measured again.

Take Tetradecylthioacetic acid [TTA]: the “Increase of liver fatty acid oxidation (FIG. 8A)” value in assay [1] is “more than 7 fold”. This substance came in with a Body weight gain in assay [2] of 234 ± 20 g.
